From patent publication US20260297070A1, “CYCLIC [COMPOUND LEFT OUT] WRN INHIBITORS” (Nimbus Wadjet, Inc., priority 2023, published 2026)

Biological target: T1, human Werner helicase (WRN-BV08, Uniprot Q14191, amino acids 517-1235 with L1074F point mutation) (Homo sapiens, UniProt Q14191, L1074F)
T1 construct: Uniprot Q14191, amino acids 517-1235 with L1074F point mutation; TEV-cleavable 8×His (C, cleaved yes); made in house; host or cells: Sf9 insect cells (baculovirus)
Assay: WRN (BV08) ADP-Glo Assay
Type: biochemical
Conditions: 0.15 nM WRN, 5 μM ATP, 0.1 nM DNA duplex, 15 min preincubation, 60 min at 25° C., pH 7.5, 1% DMSO; read-out: ADP-Glo_hWRN_IC50
Outline: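 ADP-Glo luminescence read-out of ATP hydrolysis. Conditions: 0.15 nM WRN, 5 μM ATP, 0.1 nM DNA duplex, 1% DMSO, 60 min at 25 °C after 15 min compound preincubation. Max/min controls were DMSO and 20 μM NSC-617145; IC50 from four-parameter fit.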

T1 sequence (Q14191 with tags, fused parts or gaps L1074F limits assumed): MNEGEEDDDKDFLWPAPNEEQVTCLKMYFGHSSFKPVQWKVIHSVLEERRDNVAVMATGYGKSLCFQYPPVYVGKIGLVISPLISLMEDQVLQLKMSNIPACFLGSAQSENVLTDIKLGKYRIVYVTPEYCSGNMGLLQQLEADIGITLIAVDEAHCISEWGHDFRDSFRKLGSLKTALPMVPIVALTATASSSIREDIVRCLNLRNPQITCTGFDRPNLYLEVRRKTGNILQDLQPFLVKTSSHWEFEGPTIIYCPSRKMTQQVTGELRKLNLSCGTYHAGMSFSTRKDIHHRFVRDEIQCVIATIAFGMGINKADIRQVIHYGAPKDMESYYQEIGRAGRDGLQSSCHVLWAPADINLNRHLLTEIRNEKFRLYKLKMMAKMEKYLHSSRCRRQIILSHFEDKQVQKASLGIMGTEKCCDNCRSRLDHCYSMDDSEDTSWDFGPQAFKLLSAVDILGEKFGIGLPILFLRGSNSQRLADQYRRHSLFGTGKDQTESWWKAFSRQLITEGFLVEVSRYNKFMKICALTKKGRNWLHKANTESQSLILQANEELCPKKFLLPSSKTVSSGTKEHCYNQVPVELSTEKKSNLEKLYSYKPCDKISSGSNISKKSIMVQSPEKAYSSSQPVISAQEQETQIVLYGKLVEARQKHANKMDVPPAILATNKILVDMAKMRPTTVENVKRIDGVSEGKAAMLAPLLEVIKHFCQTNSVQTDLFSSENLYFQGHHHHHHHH

SMILES | IC50 [µM]
Cc1cccn1-c1ccc(CC(=O)N(Cc2ccnc(C3(O)CCC3)c2)C2C=CS(=O)(=O)C2)c(F)c1 (stereo not shown) [I-65, N-(1,1-dioxido-2,3-dihydrothiophen-3-yl)-2-(2-fluoro-4-(2-methyl-1H-pyrrol-1-yl)phenyl)-N-((2-(1-hydroxycyclobutyl)pyridin-4-yl)methyl)acetamide] | < 0.5
CC(C)(O)c1cc(CN(C(=O)Cn2cc(-c3ccccc3)cn2)C2C=CS(=O)(=O)C2)ccn1 (stereo not shown) [I-76, N-(1,1-dioxo-2,3-dihydro-1lambda6-thiophen-3-yl)-N-{[2-(2-hydroxypropan-2-yl)pyridin-4-yl]methyl}-2-(4-phenyl-1H-pyrazol-1-yl)acetamide] | < 0.5
COc1cc(CN(C(=O)C(OCCS(C)(=O)=O)c2ccc(-c3ccc(F)c(F)c3)cc2F)[C@@H]2C=CS(=O)(=O)C2)ccn1 (single isomer, unassigned) [I-702, (2R*)-N-[(3R)-1,1-dioxo-2,3-dihydro-1lambda6-thiophen-3-yl]-2-(2-methanesulfonylethoxy)-N-[(2-methoxypyridin-4-yl)methyl]-2-{3,3′,4′-trifluoro-[1,1′-biphenyl]-4-yl}acetamide] | 0.5 to 5
C#CCCCC(=O)N1CCN(c2ccc(CN(C(=O)Cc3ccc(-n4cccc4)cc3F)C3C=CS(=O)(=O)C3)cc2)CC1 (stereo not shown) [I-213, N-(1,1-dioxo-2,3-dihydro-1lambda6-thiophen-3-yl)-2-[2-fluoro-4-(1H-pyrrol-1-yl)phenyl]-N-({4-[4-(hex-5-ynoyl)piperazin-1-yl]phenyl}methyl)acetamide] | 0.5 to 5
COc1cc(CN(C(=O)Cc2ccc(S(F)(F)(F)(F)F)cc2)C2C=CS(=O)(=O)C2)ncn1 (stereo not shown) [I-600, N-(1,1-dioxo-2,3-dihydro-1lambda6-thiophen-3-yl)-N-[(6-methoxypyrimidin-4-yl)methyl]-2-[4-(pentafluoro-lambda6-sulfanyl)phenyl]acetamide] | 0.5 to 5
COc1cc(CN(C(=O)C(OCCC#N)c2ccc(-c3ccc(F)c(F)c3)cc2F)[C@@H]2C=CS(=O)(=O)C2)ccn1 (single isomer, unassigned) [I-736, (2R*)-2-(2-cyanoethoxy)-N-[(3R)-1,1-dioxo-2,3-dihydro-1lambda6-thiophen-3-yl]-N-[(2-methoxypyridin-4-yl)methyl]-2-{3,3′,4′-trifluoro-[1,1′-biphenyl]-4-yl}acetamide] | > 50
COc1cc(CN(C(=O)Cn2cc3cc(OC(F)(F)F)ccc3n2)[C@@H]2C=CS(=O)(=O)C2)ccn1 [I-720, N-[(3R)-1,1-dioxo-2,3-dihydro-1lambda6-thiophen-3-yl]-N-[(2-methoxypyridin-4-yl)methyl]-2-[5-(trifluoromethoxy)-2H-indazol-2-yl]acetamide] | 0.5 to 5
Cc1nc(CN(C(=O)Cc2ccc(S(F)(F)(F)(F)F)cc2)C2C=CS(=O)(=O)C2)sc1C (stereo not shown) [I-612, N-[(4,5-dimethyl-1,3-thiazol-2-yl)methyl]-N-(1,1-dioxo-2,3-dihydro-1lambda6-thiophen-3-yl)-2-[4-(pentafluoro-lambda6-sulfanyl)phenyl]acetamide] | < 0.5
O=C(Cc1ccc(S(F)(F)(F)(F)F)cc1)N(CCc1nc(C2CC2)cs1)C1C=CS(=O)(=O)C1 (stereo not shown) [I-629, N-[2-(4-cyclopropyl-1,3-thiazol-2-yl)ethyl]-N-(1,1-dioxo-2,3-dihydro-1lambda6-thiophen-3-yl)-2-[4-(pentafluoro-lambda6-sulfanyl)phenyl]acetamide] | 0.5 to 5
COCCN(C)C(=O)C(C(=O)N(Cc1ccnc(C(C)(C)O)c1)[C@@H]1C=CS(=O)(=O)C1)c1ccc(-c2ccc(F)c(F)c2)cc1F (stereo partly drawn) [I-20, N′-[(3R)-1,1-dioxo-2,3-dihydro-1lambda6-thiophen-3-yl]-N′-{[2-(2-hydroxypropan-2-yl)pyridin-4-yl]methyl}-N-(2-methoxyethyl)-N-methyl-2-{3,3′,4′-trifluoro-[1,1′-biphenyl]-4-yl}propanediamide] | < 0.5
CNC(=O)C(C(=O)N(Cc1ccnc(C(C)(C)O)c1)C1C=CS(=O)(=O)C1)c1ccc(-c2ccc(F)c(F)c2)cc1F (single isomer, unassigned) [I-689, (2R**)-N′-[(3R*)-1,1-dioxo-2,3-dihydro-1lambda6-thiophen-3-yl]-N′-{[2-(2-hydroxypropan-2-yl)pyridin-4-yl]methyl}-N-methyl-2-{3,3′,4′-trifluoro-[1,1′-biphenyl]-4-yl}propanediamide] | < 0.5
CC(C)(O)c1csc(CN(C(=O)Cc2ccc(S(F)(F)(F)(F)F)cc2)C2C=CS(=O)(=O)C2)n1 (stereo not shown) [I-637, N-(1,1-dioxo-2,3-dihydro-1lambda6-thiophen-3-yl)-N-{[4-(2-hydroxypropan-2-yl)-1,3-thiazol-2-yl]methyl}-2-[4-(pentafluoro-lambda6-sulfanyl)phenyl]acetamide] | 10 to 50
CC(C)(O)c1cc(CN(C(=O)C(OCC(F)(F)F)c2ccc(-c3ccc(F)c(F)c3)cc2F)[C@@H]2C=CS(=O)(=O)C2)ccn1 (single isomer, unassigned) [I-805] | < 0.5
CN(C)C(=O)C(C(=O)N(Cc1ccnc(C(C)(C)O)c1)C1C=CS(=O)(=O)C1)n1cc(-c2ccccc2)cn1 (stereo not shown) [I-594, N′-(1,1-dioxo-2,3-dihydro-1lambda6-thiophen-3-yl)-N′-{[2-(2-hydroxypropan-2-yl)pyridin-4-yl]methyl}-N,N-dimethyl-2-(4-phenyl-1H-pyrazol-1-yl)propanediamide] | 0.5 to 5
CN(C)c1cc(CN(C(=O)Cc2ccc(S(F)(F)(F)(F)F)cc2)C2C=CS(=O)(=O)C2)ccn1 (stereo not shown) [I-89, N-{[2-(dimethylamino)pyridin-4-yl]methyl}-N-(1,1-dioxo-2,3-dihydro-1lambda6-thiophen-3-yl)-2-[4-(pentafluoro-lambda6-sulfanyl)phenyl]acetamide] | 0.5 to 5
O=C(Cn1cc(-c2cc(F)c(F)c(F)c2)cn1)OCC1(c2csc(CNC3C=CS(=O)(=O)C3)n2)CC1 (stereo not shown) [I-823, [1-(2-{[(1,1-dioxo-2,3-dihydro-1lambda6-thiophen-3-yl)amino]methyl}-1,3-thiazol-4-yl)cyclopropyl]methyl 2-[4-(3,4,5-trifluorophenyl)-1H-pyrazol-1-yl]acetate] | > 50
CC(C)(O)c1cc(CN(C(=O)Cn2ncc(-c3ccc(F)c(F)c3)cc2=O)C2C=CS(=O)(=O)C2)ccn1 (single isomer, unassigned) [I-767] | < 0.5

More lines, now with the values ahead:

IC50 [µM] | SMILES
10 to 50 | O=C(Cc1ccc(OC(F)F)cc1)N(Cc1ccncc1)C1C=CS(=O)(=O)C1 (stereo not shown) [I-331, 2-[4-(difluoromethoxy)phenyl]-N-(1,1-dioxo-2,3-dihydro-1lambda6-thiophen-3-yl)-N-[(pyridin-4-yl)methyl]acetamide]
0.5 to 5 | COc1cc(CN(C(=O)Cc2ccc(C3CC(F)C3)cc2F)[C@@H]2C=CS(=O)(=O)C2)ccn1 (stereo partly drawn) [I-591, N-[(3R)-1,1-dioxo-2,3-dihydro-1lambda6-thiophen-3-yl]-2-[2-fluoro-4-(3-fluorocyclobutyl)phenyl]-N-[(2-methoxypyridin-4-yl)methyl]acetamide]
5 to 10 | CS(=O)(=O)N1CCN(C(=O)C(C(=O)N(Cc2ccncc2)C2C=CS(=O)(=O)C2)c2ccc(-c3ccc(F)cc3)cc2)CC1 (stereo not shown) [I-666, N-(1,1-dioxo-2,3-dihydro-1lambda6-thiophen-3-yl)-2-{4′-fluoro-[1,1′-biphenyl]-4-yl}-3-(4-methanesulfonylpiperazin-1-yl)-3-oxo-N-[(pyridin-4-yl)methyl]propanamide]
> 50 | O=C(c1ccc(-c2ccccc2)cn1)N(Cc1ccccc1)C1C=CS(=O)(=O)C1 (stereo not shown) [I-487, N-benzyl-N-(1,1-dioxo-2,3-dihydro-1lambda6-thiophen-3-yl)-5-phenylpyridine-2-carboxamide]
> 50 | O=C(Cc1noc2ccccc12)N(Cc1ccncc1)C1C=CS(=O)(=O)C1 (stereo not shown) [I-516, 2-(1,2-benzoxazol-3-yl)-N-(1,1-dioxo-2,3-dihydro-1lambda6-thiophen-3-yl)-N-[(pyridin-4-yl)methyl]acetamide]
> 50 | COc1ccc2cc(CC(=O)N(Cc3ccncc3)C3C=CS(=O)(=O)C3)ccc2c1 (stereo not shown) [I-511, N-(1,1-dioxo-2,3-dihydro-1lambda6-thiophen-3-yl)-2-(6-methoxynaphthalen-2-yl)-N-[(pyridin-4-yl)methyl]acetamide]
> 50 | O=C(Cc1c[nH]c2ccccc12)N(Cc1ccncc1)C1C=CS(=O)(=O)C1 (stereo not shown) [I-493, N-(1,1-dioxo-2,3-dihydro-1lambda6-thiophen-3-yl)-2-(1H-indol-3-yl)-N-[(pyridin-4-yl)methyl]acetamide]
10 to 50 | Cc1ccn(-c2ccc(CC(=O)N(Cc3ccncc3)C3C=CS(=O)(=O)C3)cc2)c1 (stereo not shown) [I-355, N-(1,1-dioxo-2,3-dihydro-1lambda6-thiophen-3-yl)-2-[4-(3-methyl-1H-pyrrol-1-yl)phenyl]-N-[(pyridin-4-yl)methyl]acetamide]
< 0.5 | O=C(Cc1ccc(S(F)(F)(F)(F)F)cc1)N(Cc1ccncc1)C1C=CS(=O)(=O)C1 (stereo not shown) [I-63, N-(1,1-dioxo-2,3-dihydro-1lambda6-thiophen-3-yl)-2-[4-(pentafluoro-lambda6-sulfanyl)phenyl]-N-[(pyridin-4-yl)methyl]acetamide]
0.5 to 5 | COc1cc(CN(C(=O)Cc2ccc(C(F)(F)F)cc2)C2C=CS(=O)(=O)C2)ccn1 (stereo not shown) [I-105, N-(1,1-dioxo-2,3-dihydro-1lambda6-thiophen-3-yl)-N-[(2-methoxypyridin-4-yl)methyl]-2-[4-(trifluoromethyl)phenyl]acetamide]
> 50 | O=C(C1C2CCC1C2)N(Cc1ccncc1)C1C=CS(=O)(=O)C1 (stereo not shown) [I-619, N-(1,1-dioxo-2,3-dihydro-1lambda6-thiophen-3-yl)-N-[(pyridin-4-yl)methyl]bicyclo[2.1.1]hexane-5-carboxamide]
